Laboratory results: patent publication US20240280589A1, “USE OF FIBRONECTIN IN PREDICTING PREECLAMPSIA” (Sinai Health System, priority 2023, published 2024)

Tests used:
Format in all cases: cell-based, human
[1] = tested on: placental villous explants; experiment: Fibronectin in sEVs from placental villous explant culture; details: E-PE villous explants maintained at 3% O2, Hinokitiol
Experimental: Villous explants were isolated and cultured in 12-well plates with mesh inserts, from term control (n=3) and E-PE placentae (n=3). Term explants were maintained at normoxia (8% O2) or hypoxia (3% O2), while E-PE explants were maintained at 3% O2 (constituting their normoxia) and treated with […] Hinokitiol. Following incubation with their respective treatments, explant tissue was snap-frozen in liquid nitrogen for protein extraction and downstream analyses, while small extracellular vesicles (sEVs) were isolated from conditioned media by ultrafiltration using Amicon® Ultra-4 Centrifugal Filter Units (UFC8100, Millipore Sigma). […] Subsequent Western blotting was performed.

[2] = tested on: JEG3 cells; experiment: Western blot for fibronectin in sEVs from JEG3 cell conditioned media
Experimental: Subsequent Western blotting was performed.

[3] = tested on: JEG3 cells; experiment: Immunofluorescence co-localization of fibronectin with CD63/RAB7 in JEG3 cells
[4] = tested on: preeclampsia pMSCs; experiment: Exposure of preeclampsia placental mesenchymal stromal cells (pMSCs)

**Q.** How did the “fibronectin increase in explant-derived sEVs” value [1] turn out when CC(C)c1cccc(=O)c(O)c1 [Hinokitiol] was run?
**A.** attenuated

**Q.** What about the sEV fibronectin content ([2]; JEG3 cells at 3% O2, 24 hours, 1 μM, normalized to CD63) of the same molecule?
**A.** significantly reduced sEV fibronectin content to control levels

**Q.** And the sEV fibronectin levels ([2]; JEG3 cells at 21% O2)?
**A.** no discernible effect

**Q.** And the “Pearson's Correlation Coefficient between fibronectin and CD63” value ([3]; 3% O2 + 1 μM Hinokitiol)?
**A.** 0.31

**Q.** What about the “fibronectin co-localization with late endosomal marker RAB7 and sEV marker CD63” value ([3]; 3% O2, relative to hypoxia alone) of the same molecule?
**A.** attenuated fibronectin co-localization

**Q.** And the fibronectin fibrillar deposition [4]?
**A.** improved

**Q.** What about the “labile (useable) intracellular iron pool” value [4] of the same molecule?
**A.** restored
